For assay [1], the target named is T1, BTK (Homo sapiens, UniProt Q06187). The assay can be described thus: hBTK Lanthascreen biochemical activity.
In assay [2] the test system is B cells. The assay can be described thus: B cell inhibition in whole blood. It counts as cell-based.
Assay [3] deals with T1, BTK. The assay can be described thus: BTK occupancy in B cell line (Ramos cells, biotinylated probe, AlphaScreen). Format: cell-based. How it is done: A total of 5 × 10^5 Ramos cells/well were plated in 96-well PDL-coated plates in DMEM with high glucose (GIBCO) supplemented with 10% FBS. Serial dilutions of LY3439943 in DMSO (final DMSO concentration, 0.4%) were incubated with the cells for 1 h at 37 °C. An equal volume of a covalent biotinylated BTK probe was added (final concentration, 167 nM), and the cells were incubated for another 1 h at 37 °C. The cells were lysed, and the amount of BTK was determined using the AlphaScreen IgG Detection Kit (Perkin Elmer 6760617R) and an anti-BTK antibody (Thermo Scientific Cat# MA5-14929) following the manufacturer’s instructions. The signal was measured at 615 nm with an Envision plate reader (Perkin Elmer).
(In general: Alpha assays give light when donor and acceptor beads are brought close together.)

Assay [4] concerns the target T2, JAK3 (Homo sapiens, UniProt P52333).
T2 sequence (P52333 1-1124): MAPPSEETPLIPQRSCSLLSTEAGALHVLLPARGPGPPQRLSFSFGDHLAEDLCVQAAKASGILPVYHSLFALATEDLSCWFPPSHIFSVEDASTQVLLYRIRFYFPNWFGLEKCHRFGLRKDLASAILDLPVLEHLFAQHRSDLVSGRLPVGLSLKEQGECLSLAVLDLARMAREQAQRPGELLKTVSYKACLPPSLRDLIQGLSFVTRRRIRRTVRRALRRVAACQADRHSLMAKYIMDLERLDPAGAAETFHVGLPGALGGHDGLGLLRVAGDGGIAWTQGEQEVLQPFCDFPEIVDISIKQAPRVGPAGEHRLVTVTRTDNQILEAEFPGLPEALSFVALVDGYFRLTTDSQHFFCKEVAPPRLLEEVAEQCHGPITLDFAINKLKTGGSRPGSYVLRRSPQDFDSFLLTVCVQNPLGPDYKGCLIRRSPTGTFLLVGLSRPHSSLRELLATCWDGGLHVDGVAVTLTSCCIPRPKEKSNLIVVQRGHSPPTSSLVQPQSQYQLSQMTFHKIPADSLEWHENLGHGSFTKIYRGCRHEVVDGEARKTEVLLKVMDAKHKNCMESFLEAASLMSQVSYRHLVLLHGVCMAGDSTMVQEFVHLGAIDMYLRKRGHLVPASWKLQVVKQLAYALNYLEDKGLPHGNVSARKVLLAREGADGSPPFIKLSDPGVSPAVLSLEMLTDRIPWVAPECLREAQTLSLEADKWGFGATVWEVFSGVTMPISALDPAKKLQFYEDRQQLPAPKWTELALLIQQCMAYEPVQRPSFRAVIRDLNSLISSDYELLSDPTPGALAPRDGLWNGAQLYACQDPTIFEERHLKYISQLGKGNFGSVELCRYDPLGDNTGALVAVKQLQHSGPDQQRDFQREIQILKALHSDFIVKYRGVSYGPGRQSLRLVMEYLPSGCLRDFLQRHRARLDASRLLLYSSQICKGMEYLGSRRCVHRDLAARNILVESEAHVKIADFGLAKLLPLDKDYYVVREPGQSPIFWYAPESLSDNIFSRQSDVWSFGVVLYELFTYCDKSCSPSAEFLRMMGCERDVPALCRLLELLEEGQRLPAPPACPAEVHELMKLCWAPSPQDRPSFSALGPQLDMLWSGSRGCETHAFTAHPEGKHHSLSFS
The assay can be described thus: Kinase selectivity biochemical assay, JAK3. To be noted: biochemical assay.

Assay [5] concerns the target T1, BTK. As to the kind of experiment: BTK occupancy in whole blood ex vivo. More on the design: from tissue; host or cells: whole blood. It counts as cell-based.
The test system of assay [6] is A431. The assay can be described thus: Cell growth inhibition in EGFR overexpressed A431. Format: cell-based. To be noted: Homo sapiens, A-431; cellular level; read-out: IC50, cell growth inhibition in EGFR overexppressed A431.
Assay [7] deals with CTLL-2. The assay can be described thus: IL-2 induced T cell proliferation in CTLL-2. Format: cell-based. To be noted: Mus musculus, cellular level.
Assay [8] addresses T1, BTK. The assay can be described thus: Kinase selectivity biochemical assay (FRET), BTK. To be noted: Supplementary Table 1, biochemical assay.
In assay [9] the test system is B cells. The assay can be described thus: Antigen-presentation assay (OVA-preactivated B cells with DO11.10 T cells). Format: cell-based, mouse. The method, then:
DO11.10 and BALB/C mice were purchased from The Jackson Laboratory and housed in accordance with the policies of the IACUC of Eli Lilly and Company. BALB/C mice were primed with 10 µg/ml ovalbumin (OVA) in Alhydrogel (InvivoGen, CA, USA) at a 2:1 ratio and boosted with 10 µg/ml OVA in PBS 2 weeks after priming. BALB/C mice were sacrificed 4 days after boosting, and B cells were purified from splenocytes using CD19 microbeads (Miltenyi Biotec) for positive selection. B cells were preincubated with HM71305/LSN3359180 for 1 h before the addition of OVA protein or OVA323-339 peptide, and T cells were positively isolated from DO11.10 transgenic mice using CD4 microbeads (Miltenyi Biotec). The supernatants were collected after 18 h, and IL-2 was measured by ELISA using mouse IL-2 DuoSet (DY402, R&D Systems). FACS analysis of CD69 (H1.2F3, Biolegend), CD86 (B7-2, BD Biosciences) and H2-IA/IE (M5/114.15.3, BD Biosciences) was performed using BD LSR Fortessa, and data were analyzed by FlowJo10 (FlowJo, LLC).

SMILES strings stand for the structures.

T1 sequence (Q06187 whole entry): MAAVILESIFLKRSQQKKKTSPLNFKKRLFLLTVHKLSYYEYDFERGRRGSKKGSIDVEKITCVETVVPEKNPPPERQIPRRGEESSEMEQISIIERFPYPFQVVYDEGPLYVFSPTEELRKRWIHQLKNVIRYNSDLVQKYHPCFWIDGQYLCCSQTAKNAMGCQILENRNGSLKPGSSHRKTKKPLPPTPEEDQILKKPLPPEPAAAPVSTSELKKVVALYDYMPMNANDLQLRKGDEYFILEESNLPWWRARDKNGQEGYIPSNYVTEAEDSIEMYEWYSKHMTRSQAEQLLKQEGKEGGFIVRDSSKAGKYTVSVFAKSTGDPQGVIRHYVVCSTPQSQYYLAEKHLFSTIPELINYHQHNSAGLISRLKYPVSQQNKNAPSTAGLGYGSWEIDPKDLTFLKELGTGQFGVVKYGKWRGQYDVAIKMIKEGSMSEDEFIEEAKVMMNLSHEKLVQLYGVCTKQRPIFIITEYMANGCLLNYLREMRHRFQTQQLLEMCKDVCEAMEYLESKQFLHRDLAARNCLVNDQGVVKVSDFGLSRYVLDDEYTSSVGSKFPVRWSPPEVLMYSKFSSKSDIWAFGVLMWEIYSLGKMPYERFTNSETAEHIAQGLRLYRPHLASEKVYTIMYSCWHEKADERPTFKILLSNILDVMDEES

Turning to `C=CC(=O)Nc1cccc(Oc2nc(Nc3ccc(N4CCN(C(C)C)CC4)cc3)nc3ccoc23)c1` [HM71035], the IC50 (in general, the concentration at which inhibition is half-maximal) is 3 nM in assay [1]; 440 nM in assay [2]; 6 nM in assay [3]; 39 nM in assay [4]; 170 nM in assay [5]; more than 500 nM in assay [6]. Further, the IC50 is more than 500 nM in assay [7]; 3 nM in assay [8]; approximately 100 nM in assay [9] (Mus musculus, B-cell, in vivo preactivated B cells, roughly, read-out: IC50 effect on the B cells (CD80 and CD86 expression)). In assay [9] (B cells preincubated 1 h with compound, coculture with DO11.10 T cells), the “B cell-dependent T cell activation (IL-2 secretion, CD69 expression on T cells)” value was “reduced in a dose-dependent fashion”.

The values above are taken from paper PMC8455565 (Scientific Reports, 2021).
